The values that follow come from patent US8163771B2, “11 β-HSD1 modulators” (Exelixis, Inc., priority 2008, dated 2012).

Structures are written as SMILES.

The target of this test is T1, recombinant human 11 β-HSD1 (Homo sapiens, UniProt P28845).
T1 construct: made in house; host or cells: E. coli
The experiment in a line: 11 β-HSD1 SPA Assay (Scintillation Proximity Assay). The format is biochemical. The procedure, abridged: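 E. coli-expressed human enzyme (30-100 nM) with tritiated cortisone 40 nM and NADPH 1 mM in HEPES buffer pH7.4, 2 hours at room temperature. Stopped with protein A SPA beads carrying anti-cortisol antibody and glycyrrhetinic acid; counted after overnight incubation. IC50 from percent inhibition between no-enzyme and no-compound signals.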

T1 sequence (P28845 whole entry): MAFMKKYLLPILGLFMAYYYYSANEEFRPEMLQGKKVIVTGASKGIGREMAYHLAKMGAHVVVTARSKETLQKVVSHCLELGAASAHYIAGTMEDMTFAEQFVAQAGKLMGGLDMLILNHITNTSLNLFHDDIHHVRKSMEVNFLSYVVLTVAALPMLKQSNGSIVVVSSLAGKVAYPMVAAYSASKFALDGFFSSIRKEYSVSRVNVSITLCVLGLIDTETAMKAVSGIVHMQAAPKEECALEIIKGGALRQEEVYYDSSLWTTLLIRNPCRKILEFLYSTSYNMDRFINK

What is called IC50 is the concentration that inhibits the measured activity by half. On to `CC(C)(Oc1ccc(Cl)c(F)c1)C(=O)N[C@H]1C[C@H]2CC[C@@H](C1)N2c1ccc(C(=O)NCC(F)(F)F)cn1` [Example 77, 6-[3-endo-({2-[(4-chloro-3-fluorophenyl)oxy]-2-methylpropanoyl}amino)-8-azabicyclo[3.2.1]oct-8-yl]-N-(2,2,2-trifluoroethyl)pyridine-3-carboxamide], for which the IC50 was below 200 nM.

With `CC(C)(Oc1ccc(F)c(F)c1)C(=O)N[C@H]1C[C@H]2CC[C@@H](C1)N2c1ccc(C(=O)NCC(F)(F)F)cn1` [Example 78, 6-[3-endo-({2-[(3,4-difluorophenyl)oxy]-2-methylpropanoyl}amino)-8-azabicyclo[3.2.1]oct-8-yl]-N-(2,2,2-trifluoroethyl)pyridine-3-carboxamide], the IC50 is below 200 nM.

As for `CC(C)NC(=O)c1ccc(N2[C@@H]3CC[C@H]2C[C@@H](NC(=O)C(C)(C)Oc2ccc(Cl)c(Cl)c2)C3)nc1` [Example 79, 6-[3-endo-({2-[(3,4-dichlorophenyl)oxy]-2-methylpropanoyl}amino)-8-azabicycio[3.2.1]oct-8-yl]-N-(1-methylethyl)pyridine-3-carboxamide], the IC50 was below 200 nM.

In the case of `COCCNC(=O)c1ccc(N2[C@@H]3CC[C@H]2C[C@@H](NC(=O)C(C)(C)Oc2ccc(Cl)cc2Cl)C3)nc1` [Example 80, 6-[3-endo-({2-[(2,4-dichlorophenyl)oxy]-2-methylpropanoyl}amino)-8-azabicyclo[3.2.1]oct-8-yl]-N-[2-(methyloxy)ethyl]pyridine-3-carboxamide], the IC50 is below 200 nM.

For `CCC(Oc1ccc(Cl)cc1)C(=O)N[C@H]1C[C@H]2CC[C@@H](C1)N2c1ccc(C(=O)NCCOC)cn1` (stereo partly drawn) [Example 81, 6-[3-endo-({2-[(4-chlorophenyl)oxy]butanoyl}amino)-8-azabicyclo[3.2.1]oct-8-yl]-N-[2-(methyloxy)ethyl]pyridine-3-carboxamide], the IC50 was below 2000 nM.

In the case of `CC(Oc1ccc(Cl)cc1Cl)C(=O)N[C@H]1C[C@H]2CC[C@@H](C1)N2c1ccc(C(=O)NC2CC2)cn1` (stereo partly drawn) [Example 82, N-cyclopropyl-6-[3-endo-({2-[(2,4-dichlorophenyl)oxy]propanoyl}amino)-8-azabicyclo[3.2.1]oct-8-yl]pyridine-3-carboxamide], the IC50 is below 200 nM.

Regarding `CC(C)(Oc1ccc(Cl)c(Cl)c1)C(=O)N[C@H]1C[C@H]2CC[C@@H](C1)N2c1ccc(C(=O)NCC(F)(F)F)cn1` [Example 83, 6-[3-endo-({2-[(3,4-dichlorophenyl)oxy]-2-methylpropanoyl}amino)-8-azabicyclo[3.2.1]oct-8-yl]-N-(2,2,2-trifluoroethyl)pyridine-3-carboxamide], the IC50 was below 200 nM.

With `CC(C)NC(=O)c1ccc(N2[C@@H]3CC[C@H]2C[C@@H](NC(=O)C(C)(C)Oc2ccc(Cl)c(F)c2)C3)nc1` [Example 84, 6-[3-endo-({2-[(4-chloro-3-fluorophenyl)oxy]-2-methylpropanoyl}amino)-8-azabicyclo[3.2.1]oct-8-yl]-N-(1-methylethyl)pyridine-3-carboxamide], the IC50 is below 200 nM.

On to `CC(C)NC(=O)c1ccc(N2[C@@H]3CC[C@H]2C[C@@H](NC(=O)C(C)(C)Oc2ccc(F)c(F)c2)C3)nc1` [Example 85, 6-[3-endo-({2-[(3,4-difluorophenyl)oxy]-2-methylpropanoyl}amino)-8-azabicyclo[3.2.1]oct-8-yl]-N-(1-methylethyl)pyridine-3-carboxamide], for which the IC50 is below 2000 nM.

Regarding `CC(C)(Oc1ccc(Cl)cc1Cl)C(=O)N[C@H]1C[C@H]2CC[C@@H](C1)N2c1ncc(C(=O)NC2CC2)cc1Cl` [Example 86, 5-chloro-N-cyclopropyl-6-[3-endo-({2-[(2,4-dichlorophenyl)oxy]-2-methylpropanoyl}amino)-8-azabicyclo[3.2.1]oct-8-yl]pyridine-3-carboxamide], the IC50 was below 200 nM.

Regarding `CC(=O)c1ccc(N2[C@@H]3CC[C@H]2C[C@@H](NC(=O)C(C)(C)Oc2ccc(Cl)cc2Cl)C3)nc1` [Example 87, N-[8-(5-acetylpyridin-2-yl)-8-azabicyclo[3.2.1]oct-3-endo-yl]-2-[(2,4-dichlorophenyl)oxy]-2-methylpropanamide], the IC50 is below 200 nM.

As for `CC(C)(Oc1ccc(Cl)cc1Cl)C(=O)N[C@H]1C[C@H]2CC[C@@H](C1)N2c1ccc(N)cn1` [Example 88, N-[8-(5-aminopyridin-2-yl)-8-azabicyclo[3.2.1]oct-3-endo-yl]-2-[(2,4-dichlorophenyl)oxy]-2-methylpropanamide], the IC50 is below 200 nM.

As for `COCCNC(=O)c1ccc(N2[C@@H]3CC[C@H]2C[C@@H](NC(=O)C(C)(C)Oc2ccc(Cl)cc2)C3)nc1` [Example 89, 6-[3-endo-({2-[(4-chlorophenyl)oxy]-2-methylpropanoyl}amino)-8-azabicyclo[3.2.1]oct-8-yl]-N-[2-(methyloxy)ethyl]pyridine-3-carboxamide], the IC50 is below 200 nM.

Consider `CC(C)(Oc1cc(F)c(Cl)cc1Cl)C(=O)N[C@H]1C[C@H]2CC[C@@H](C1)N2c1ccc(C(=O)NCC(F)(F)F)cn1` [Example 90, 6-[3-endo-({2-[(2,4-dichloro-5-fluorophenyl)oxy]-2-methylpropanoyl}amino)-8-azabicyclo[3.2.1]oct-8-yl]-N-(2,2,2-trifluoroethyl)pyridine-3-carboxamide], for which the IC50 is below 200 nM.

In the case of `CC(C)(Oc1cc(F)c(Cl)cc1Cl)C(=O)N[C@H]1C[C@H]2CC[C@@H](C1)N2c1ccc(C(=O)NC2CC2)cn1` [Example 91, N-cyclopropyl-6-[3-endo-({2-[(2,4-dichloro-5-fluorophenyl)oxy]-2-methylpropanoyl}amino)-8-azabicyclo[3.2.1]oct-8-yl]pyridine-3-carboxamide], the IC50 was below 200 nM.

For the compound `CC(C)(Oc1ccc(Cl)cc1Cl)C(=O)N[C@H]1C[C@H]2CC[C@@H](C1)N2c1ccc(NC(=O)C2CC2)cn1` [Example 92, N-{6-[3-endo-({2-[(2,4-dichlorophenyl)oxy]-2-methylpropanoyl}amino)-8-azabicyclo[3.2.1]oct-8-yl]pyridin-3-yl}cyclopropanecarboxamide], the IC50 was below 200 nM.

As for `CC(C)(Oc1ccc(F)c(Cl)c1)C(=O)N[C@H]1C[C@H]2CC[C@@H](C1)N2c1ccc(C(=O)NCC(F)(F)F)cn1` [Example 93, 6-[3-endo-({2-[(3-chloro-4-fluorophenyl)oxy]-2-methylpropanoyl}amino)-8-azabicyclo[3.2.1]oct-8-yl]-N-(2,2,2-trifluoroethyl)pyridine-3-carboxamide], the IC50 is below 200 nM.

In the case of `CC(=O)Nc1ccc(N2[C@@H]3CC[C@H]2C[C@@H](NC(=O)C(C)(C)Oc2ccc(Cl)cc2Cl)C3)nc1` [Example 94, N-{8-[5-(acetylamino)pyridin-2-yl]-8-azabicyclo[3.2.1]oct-3-endo-yl}-2-[(2,4-dichlorophenyl)oxy]-2-methylpropanamide], the IC50 is below 200 nM.

On to `CC(C)NC(=O)c1ccc(N2[C@@H]3CC[C@H]2C[C@@H](NC(=O)C(C)(C)Oc2ccc(F)c(Cl)c2)C3)nc1` [Example 95, 6-[3-endo-({2-[(3-chloro-4-fluorophenyl)oxy]-2-methylpropanoyl}amino)-8-azabicyclo[3.2.1]oct-8-yl]-N-(1-methylethyl)pyridine-3-carboxamide], for which the IC50 is below 200 nM.

Turning to `CC(C)(Oc1cc(F)c(F)cc1Cl)C(=O)N[C@H]1C[C@H]2CC[C@@H](C1)N2c1ccc(C(N)=O)cn1` [Example 96, 6-[3-endo-({2-[(2-chloro-4,5-difluorophenyl)oxy]-2-methylpropanoyl}amino)-8-azabicyclo[3.2.1]oct-8-yl]pyridine-3-carboxamide], the IC50 was below 200 nM.

Take `CC(C)(Oc1ccc(F)c(Cl)c1Cl)C(=O)N[C@H]1C[C@H]2CC[C@@H](C1)N2c1ccc(C(N)=O)cn1` [Example 97, 6-[3-endo-({2-[(2,3-dichloro-4-fluorophenyl)oxy]-2-methylpropanoyl}amino)-8-azabicyclo[3.2.1]oct-8-yl]pyridine-3-carboxamide]: the IC50 was below 200 nM.

`CC(C)(Oc1cc(Cl)c(F)cc1Cl)C(=O)N[C@H]1C[C@H]2CC[C@@H](C1)N2c1ccc(C(=O)NCC(F)(F)F)cn1` [Example 98, 6-[3-endo-({2-[(2,5-dichloro-4-fluorophenyl)oxy]-2-methylpropanoyl}amino)-8-azabicyclo[3.2.1]oct-8-yl]-N-(2,2,2-trifluoroethyl)pyridine-3-carboxamide]: the IC50 was below 200 nM.

Turning to `CC(C)(Oc1cc(Cl)c(F)cc1Cl)C(=O)N[C@H]1C[C@H]2CC[C@@H](C1)N2c1ccc(C(N)=O)cn1` [Example 99, 6-[3-endo-({2-[(2,5-dichloro-4-fluorophenyl)oxy]-2-methylpropanoyl}amino)-8-azabicyclo[3.2.1]oct-8-yl]pyridine-3-carboxamide], the IC50 was below 200 nM.

On to `CC(C)(Oc1ccc(F)c(Cl)c1Cl)C(=O)N[C@H]1C[C@H]2CC[C@@H](C1)N2c1ccc(C(=O)NCC(F)(F)F)cn1` [Example 100, 6-[3-endo-({2-[(2,3-dichloro-4-fluorophenyl)oxy]-2-methylpropanoyl}amino)-8-azabicyclo[3.2.1]oct-8-yl]-N-(2,2,2-trifluoroethyl)pyridine-3-carboxamide], for which the IC50 is below 200 nM.

In the case of `CC(C)(Oc1ccc(Cl)cc1Cl)C(=O)N[C@H]1C[C@H]2CC[C@@H](C1)N2c1ccc(NS(C)(=O)=O)cn1` [Example 101, 2-[(2,4-dichlorophenyl)oxy]-2-methyl-N-(8-{5-[(methylsulfonyl)amino]pyridin-2-yl}-8-azabicyclo[3.2.1]oct-3-endo-yl)propanamide], the IC50 was below 200 nM.

For `NC(=O)c1ccc(N2[C@@H]3CC[C@H]2C[C@@H](NC(=O)C2(c4cccc(Cl)c4)CC2)C3)nc1` [Example 102, 6-[3-endo-({[1-(3-chlorophenyl)cyclopropyl]carbonyl}amino)-8-azabicyclo[3.2.1]oct-8-yl]pyridine-3-carboxamide], the IC50 is below 200 nM.

Regarding `NC(=O)c1ccc(N2[C@@H]3CC[C@H]2C[C@@H](NC(=O)C2(c4ccc(Cl)c(Cl)c4)CC2)C3)nc1` [Example 103, 6-[3-endo-({[1-(3,4-dichiorophenyl)cyclopropyl]carbonyl}amino)-8-azabicyclo[3.2.1]oct-8-yl]pyridine-3-carboxamide], the IC50 was below 200 nM.
